In patent US9611267B2, “Substituted tricyclic compounds as FGFR inhibitors” (Incyte Corporation, priority 2012, dated 2017):
Read-outs that look alike come from different tables or passages of the source.

What was measured:
Format in all cases: biochemical
FGFR2 = FGFR2 (Homo sapiens (Human), UniProt P21802); experiment: FGFR enzymatic assay (FRET peptide phosphorylation), FGFR2; conditions: FGFR2 enzyme 0.01 nM, ATP 100 μM
Description: (§1) The inhibitor potency of the exemplified compounds was measured in an enzyme assay that measures peptide phosphorylation using FRET measurements to detect product formation. Inhibitors were serially diluted in DMSO and a volume of 0.5 μL was transferred to the wells of a 384-well plate. For FGFR3, a 10 μL volume of FGFR3 enzyme (Millipore) diluted in assay buffer (50 mM HEPES, 10 mM MgCl2, 1 mM EGTA, 0.01% Tween-20, 5 mM DTT, pH 7.5) was added to the plate and pre-incubated for 5-10 minutes. Appropriate controls (enzyme blank and enzyme with no inhibitor) were included on the plate. […] The plate was incubated at 25° C. for 1 hr. […] The plate was allowed to equilibrate for ˜1 hr before scanning the wells on a PheraStar plate reader (BMG Labtech).
(§2) The enzymes were purchased from Millipore or Invitrogen.
(§3) GraphPad prism3 was used to analyze the data. The IC50 values were derived by fitting the data to the equation for a sigmoidal dose-response with a variable slope. Y=Bottom+(Top−Bottom)/(1+10^((LogIC50−X)*HillSlope)) where X is the logarithm of concentration and Y is the response.

FGFR1 = FGFR1 (Homo sapiens (Human), UniProt P11362); experiment: FGFR enzymatic assay (FRET peptide phosphorylation), FGFR1
Chain of FGFR1 (P11362 22-822): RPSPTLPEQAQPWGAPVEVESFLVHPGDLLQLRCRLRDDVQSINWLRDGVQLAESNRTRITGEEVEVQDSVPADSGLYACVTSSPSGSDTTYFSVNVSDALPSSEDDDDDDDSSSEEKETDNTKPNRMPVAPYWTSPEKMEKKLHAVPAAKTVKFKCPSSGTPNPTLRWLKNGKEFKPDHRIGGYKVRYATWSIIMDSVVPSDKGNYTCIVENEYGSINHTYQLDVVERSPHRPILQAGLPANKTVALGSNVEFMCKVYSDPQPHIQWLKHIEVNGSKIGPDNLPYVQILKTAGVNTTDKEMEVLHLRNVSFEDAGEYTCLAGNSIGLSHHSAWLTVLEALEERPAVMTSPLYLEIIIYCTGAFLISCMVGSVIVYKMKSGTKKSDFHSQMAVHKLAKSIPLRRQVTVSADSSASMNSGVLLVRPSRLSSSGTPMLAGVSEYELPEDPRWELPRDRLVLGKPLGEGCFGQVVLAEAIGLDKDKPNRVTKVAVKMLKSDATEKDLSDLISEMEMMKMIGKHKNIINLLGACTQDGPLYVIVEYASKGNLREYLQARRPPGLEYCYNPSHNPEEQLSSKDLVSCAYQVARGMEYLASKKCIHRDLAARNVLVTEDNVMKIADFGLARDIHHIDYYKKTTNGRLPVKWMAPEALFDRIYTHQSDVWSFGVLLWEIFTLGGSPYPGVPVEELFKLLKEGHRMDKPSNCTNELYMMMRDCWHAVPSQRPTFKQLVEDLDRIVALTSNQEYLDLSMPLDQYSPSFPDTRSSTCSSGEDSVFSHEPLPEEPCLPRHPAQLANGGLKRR
Description: as §1, §2, §3

FGFR3 = FGFR3 (Homo sapiens (Human), UniProt P22607); experiment: FGFR enzymatic assay (FRET peptide phosphorylation), FGFR3; conditions: FGFR3 enzyme (Millipore), ATP 140 μM
Chain of FGFR3 (P22607 23-806): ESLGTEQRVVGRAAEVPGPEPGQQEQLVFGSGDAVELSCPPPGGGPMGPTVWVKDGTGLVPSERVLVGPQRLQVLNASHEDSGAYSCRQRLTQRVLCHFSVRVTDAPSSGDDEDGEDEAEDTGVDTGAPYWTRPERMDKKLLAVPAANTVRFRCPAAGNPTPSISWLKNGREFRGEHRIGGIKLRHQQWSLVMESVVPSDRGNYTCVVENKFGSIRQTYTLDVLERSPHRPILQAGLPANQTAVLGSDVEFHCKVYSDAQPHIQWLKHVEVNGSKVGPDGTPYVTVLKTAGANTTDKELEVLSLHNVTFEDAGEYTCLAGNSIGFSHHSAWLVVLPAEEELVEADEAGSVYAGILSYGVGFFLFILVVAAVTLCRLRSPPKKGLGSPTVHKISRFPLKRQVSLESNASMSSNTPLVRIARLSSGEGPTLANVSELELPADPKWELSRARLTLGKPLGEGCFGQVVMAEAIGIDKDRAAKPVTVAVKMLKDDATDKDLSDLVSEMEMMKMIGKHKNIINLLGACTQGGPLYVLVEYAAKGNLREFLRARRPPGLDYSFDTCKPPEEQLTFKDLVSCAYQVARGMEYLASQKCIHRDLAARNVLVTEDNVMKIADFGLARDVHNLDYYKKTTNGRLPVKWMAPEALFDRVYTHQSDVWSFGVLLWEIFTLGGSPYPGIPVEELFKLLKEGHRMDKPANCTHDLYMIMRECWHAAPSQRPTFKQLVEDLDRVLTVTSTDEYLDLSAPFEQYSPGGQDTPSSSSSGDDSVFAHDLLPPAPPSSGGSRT
Description: as §1, §3

[1] = FGFR1 enzyme 0.02 nM, ATP 210 μM

Measured: IC50

Chain of FGFR2 (P21802 22-821): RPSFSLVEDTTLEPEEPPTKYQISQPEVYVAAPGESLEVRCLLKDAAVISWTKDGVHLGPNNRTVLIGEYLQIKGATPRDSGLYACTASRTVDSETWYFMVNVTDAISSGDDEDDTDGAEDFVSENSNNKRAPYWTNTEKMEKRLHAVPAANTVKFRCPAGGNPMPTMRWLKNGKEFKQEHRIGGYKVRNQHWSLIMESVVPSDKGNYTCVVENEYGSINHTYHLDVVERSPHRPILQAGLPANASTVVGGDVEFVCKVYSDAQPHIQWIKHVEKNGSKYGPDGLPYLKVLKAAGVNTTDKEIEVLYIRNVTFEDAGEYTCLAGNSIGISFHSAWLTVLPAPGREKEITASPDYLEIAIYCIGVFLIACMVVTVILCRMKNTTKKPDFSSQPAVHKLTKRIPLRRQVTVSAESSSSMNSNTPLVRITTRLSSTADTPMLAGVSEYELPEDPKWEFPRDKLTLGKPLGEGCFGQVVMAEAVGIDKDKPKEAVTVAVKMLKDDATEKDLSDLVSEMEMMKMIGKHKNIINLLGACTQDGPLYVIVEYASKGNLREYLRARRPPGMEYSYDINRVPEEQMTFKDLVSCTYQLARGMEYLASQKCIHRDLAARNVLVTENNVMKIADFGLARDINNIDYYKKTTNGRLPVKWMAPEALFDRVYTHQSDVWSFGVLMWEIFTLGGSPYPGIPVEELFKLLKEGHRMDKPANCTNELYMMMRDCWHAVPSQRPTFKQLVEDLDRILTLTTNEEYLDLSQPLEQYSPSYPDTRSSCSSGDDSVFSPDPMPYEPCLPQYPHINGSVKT

COc1cc(OC)cc(N2Cc3cnc4[nH]c(-c5cnn(C)c5)cc4c3N(C)C2=O)c1 [Example 11, 3-(3,5-Dimethoxyphenyl)-1-methyl-8-(1-methyl-1H-pyrazol-4-yl)-1,3,4,7-tetrahydro-2H-pyrrolo[3′,2′:5,6]pyrido[4,3-d]pyrimidin-2-one]
< 100 nM: FGFR2 | FGFR1; [1] | FGFR3

CNC(=O)c1cc2c3c(cnc2[nH]1)CN(c1cc(OC)cc(OC)c1)C(=O)N3C [Example 12, 3-(3,5-Dimethoxyphenyl)-N,1-dimethyl-2-oxo-2,3,4,7-tetrahydro-1H-pyrrolo[3′,2′:5,6]pyrido[4,3-d]pyrimidine-8-carboxamide]
< 100 nM: FGFR2 | FGFR1; [1] | FGFR3

COc1cc(OC)c(Cl)c(N2Cc3cnc4[nH]c(-c5cnn(C)c5)cc4c3N(C)C2=O)c1 [Example 13, 3-(2-Chloro-3,5-dimethoxyphenyl)-1-methyl-8-(1-methyl-1H-pyrazol-4-yl)-1,3,4,7-tetrahydro-2H-pyrrolo[3′,2′:5,6]pyrido[4,3-d]pyrimidin-2-one]
< 100 nM: FGFR2 | FGFR1; [1] | FGFR3

COc1cc(OC)c(Cl)c(N2Cc3cnc4[nH]c(-c5cnn(CCO)c5)cc4c3N(C)C2=O)c1 [Example 14, 3-(2-Chloro-3,5-dimethoxyphenyl)-8-[1-(2-hydroxyethyl)-1H-pyrazol-4-yl]-1-methyl-1,3,4,7-tetrahydro-2H-pyrrolo[3′,2′:5,6]pyrido[4,3-d]pyrimidin-2-one]
< 100 nM: FGFR2 | FGFR1; [1] | FGFR3

COc1cc(OC)c(Cl)c(N2Cc3cnc4[nH]c(-c5ccnn5C)cc4c3N(C)C2=O)c1 [Example 15, 3-(2-Chloro-3,5-dimethoxyphenyl)-1-methyl-8-(1-methyl-1H-pyrazol-5-yl)-1,3,4,7-tetrahydro-2H-pyrrolo[3′,2′:5,6]pyrido[4,3-d]pyrimidin-2-one]
< 100 nM: FGFR2 | FGFR1; [1] | FGFR3

COc1cc(OC)c(Cl)c(N2Cc3cnc4[nH]c(C#N)cc4c3N(C)C2=O)c1 [Example 16, 3-(2-Chloro-3,5-dimethoxyphenyl)-1-methyl-2-oxo-2,3,4,7-tetrahydro-1H-pyrrolo[3′,2′:5,6]pyrido[4,3-d]pyrimidine-8-carbonitrile]
< 100 nM: FGFR2 | FGFR1; [1] | FGFR3

COc1cc(OC)cc(N2Cc3cnc4[nH]c(C5=CCN(C)CC5)cc4c3N(C)C2=O)c1 [Example 17, 3-(3,5-Dimethoxyphenyl)-1-methyl-8-(1-methyl-1,2,3,6-tetrahydropyridin-4-yl)-1,3,4,7-tetrahydro-2H-pyrrolo[3′,2′:5,6]pyrido[4,3-d]pyrimidin-2-one]
< 100 nM: FGFR2 | FGFR1 | FGFR3

COc1cc(OC)cc(N2Cc3cnc4[nH]c(C5CCN(C)CC5)cc4c3N(C)C2=O)c1 [Example 18, 3-(3,5-Dimethoxyphenyl)-1-methyl-8-(1-methylpiperidin-4-yl)-1,3,4,7-tetrahydro-2H-pyrrolo[3′,2′:5,6]pyrido[4,3-d]pyrimidin-2-one]
< 100 nM: FGFR2 | FGFR1; [1] | FGFR3

COc1cc(OC)cc(N2Cc3cnc4[nH]c(C(=O)N(C)C)cc4c3N(C)C2=O)c1 [Example 19, 3-(3,5-Dimethoxyphenyl)-N,N,1-trimethyl-2-oxo-2,3,4,7-tetrahydro-1H-pyrrolo[3′,2′:5,6]pyrido[4,3-d]pyrimidine-8-carboxamide]
< 100 nM: FGFR2 | FGFR1; [1] | FGFR3

COc1cc(OC)cc(N2Cc3cnc4[nH]c(C(=O)N5CC(O)C5)cc4c3N(C)C2=O)c1 [Example 20, 3-(3,5-Dimethoxyphenyl)-8-[(3-hydroxyazetidin-1-yl)carbonyl]-1-methyl-1,3,4,7-tetrahydro-2H-pyrrolo[3′,2′:5,6]pyrido[4,3-d]pyrimidin-2-one]
< 100 nM: FGFR2 | FGFR1; [1] | FGFR3

COc1cc(OC)cc(N2Cc3cnc4[nH]c(C(=O)N5CCC(O)C5)cc4c3N(C)C2=O)c1 (stereo not drawn) [Example 21, 3-(3,5-Dimethoxyphenyl)-8-[(3-hydroxypyrrolidin-1-yl)carbonyl]-1-methyl-1,3,4,7-tetrahydro-2H-pyrrolo[3′,2′:5,6]pyrido[4,3-d]pyrimidin-2-one]
< 100 nM: FGFR2 | FGFR1; [1] | FGFR3

COc1cc(OC)cc(N2Cc3cnc4[nH]c(C(=O)N5CCN(C)CC5)cc4c3N(C)C2=O)c1 [Example 22, 3-(3,5-Dimethoxyphenyl)-1-methyl-8-[(4-methylpiperazin-1-yl)carbonyl]-1,3,4,7-tetrahydro-2H-pyrrolo[3′,2′:5,6]pyrido[4,3-d]pyrimidin-2-one]
< 100 nM: FGFR2 | FGFR1; [1] | FGFR3

CNC(=O)c1cc2c3c(cnc2[nH]1)CN(c1cc(OC)cc(OC)c1Cl)C(=O)N3C [Example 23, 3-(2-Chloro-3,5-dimethoxyphenyl)-N,1-dimethyl-2-oxo-2,3,4,7-tetrahydro-1H-pyrrolo[3′,2′:5,6]pyrido[4,3-d]pyrimidine-8-carboxamide]
< 100 nM: FGFR2 | FGFR1; [1] | FGFR3

COc1cc(OC)c(Cl)c(N2Cc3cnc4[nH]c(C(=O)N(C)C)cc4c3N(C)C2=O)c1 [Example 24, 3-(2-Chloro-3,5-dimethoxyphenyl)-N,N,1-trimethyl-2-oxo-2,3,4,7-tetrahydro-1H-pyrrolo[3′,2′:5,6]pyrido[4,3-d]pyrimidine-8-carboxamide]
< 100 nM: FGFR2 | FGFR1; [1] | FGFR3

COc1cc(OC)c(Cl)c(N2Cc3cnc4[nH]c(C(=O)N5CC(O)C5)cc4c3N(C)C2=O)c1 [Example 25, 3-(2-Chloro-3,5-dimethoxyphenyl)-8-[(3-hydroxyazetidin-1-yl)carbonyl]-1-methyl-1,3,4,7-tetrahydro-2H-pyrrolo[3′,2′:5,6]pyrido[4,3-d]pyrimidin-2-one]
< 100 nM: FGFR2 | FGFR1; [1] | FGFR3

COc1cc(OC)c(Cl)c(N2Cc3cnc4[nH]c(C(=O)N5CCN(C)CC5)cc4c3N(C)C2=O)c1 [Example 26, 3-(2-Chloro-3,5-dimethoxyphenyl)-1-methyl-8-[(4-methylpiperazin-1-yl)carbonyl]-1,3,4,7-tetrahydro-2H-pyrrolo[3′,2′:5,6]pyrido[4,3-d]pyrimidin-2-one]
< 100 nM: FGFR2 | FGFR1; [1] | FGFR3

COc1cc(OC)c(F)c(N2Cc3cnc4[nH]c(C(=O)NC5CC5)cc4c3N(C)C2=O)c1 [Example 27, N-Cyclopropyl-3-(2-fluoro-3,5-dimethoxyphenyl)-1-methyl-2-oxo-2,3,4,7-tetrahydro-1H-pyrrolo[3′,2′:5,6]pyrido[4,3-d]pyrimidine-8-carboxamide]
< 100 nM: FGFR2 | FGFR1; [1] | FGFR3

COc1cc(OC)c(F)c(N2Cc3cnc4[nH]c(C(=O)N5CC(O)C5)cc4c3N(C)C2=O)c1 [Example 28, 3-(2-Fluoro-3,5-dimethoxyphenyl)-8-[(3-hydroxyazetidin-1-yl)carbonyl]-1-methyl-1,3,4,7-tetrahydro-2H-pyrrolo[3′,2′:5,6]pyrido[4,3-d]pyrimidin-2-one]
< 100 nM: FGFR2 | FGFR1; [1] | FGFR3

COc1cc(OC)c(F)c(N2Cc3cnc4[nH]c(C(=O)N5CCC(C#N)C5)cc4c3N(C)C2=O)c1 (stereo not drawn) [Example 29, 1-{[3-(2-Fluoro-3,5-dimethoxyphenyl)-1-methyl-2-oxo-2,3,4,7-tetrahydro-1H-pyrrolo[3′,2′:5,6]pyrido[4,3-d]pyrimidin-8-yl]carbonyl}pyrrolidine-3-carbonitrile]
< 100 nM: FGFR2 | FGFR1; [1] | FGFR3

COc1cc(OC)c(F)c(N2Cc3cnc4[nH]c(C(=O)N5CCN(C)CC5)cc4c3N(C)C2=O)c1 [Example 30, 3-(2-Fluoro-3,5-dimethoxyphenyl)-1-methyl-8-[(4-methylpiperazin-1-yl)carbonyl]-1,3,4,7-tetrahydro-2H-pyrrolo[3′,2′:5,6]pyrido[4,3-d]pyrimidin-2-one]
< 100 nM: FGFR2 | FGFR1; [1] | FGFR3

COc1cc(OC)c(F)c(N2Cc3cnc4[nH]c(C(=O)N5CCCC(O)C5)cc4c3N(C)C2=O)c1 (stereo not drawn) [Example 31, 3-(2-Fluoro-3,5-dimethoxyphenyl)-8-[(3-hydroxypiperidin-1-yl)carbonyl]-1-methyl-1,3,4,7-tetrahydro-2H-pyrrolo[3′,2′:5,6]pyrido[4,3-d]pyrimidin-2-one]
< 100 nM: FGFR2 | FGFR1; [1] | FGFR3
